Measured values: patent publication US20240209011A1, “HETEROAROMATIC PHOSPHONIUM SALTS FOR TREATING CANCER” (FLORATEK PHARMA S.A., priority 2021, published 2024)

Columns and labels:
[1] = test system: panel of 30 kinases; test: KINOMEscan primary screen; format: binding; conditions: % Ctrl between 0 and 10 selected for Kd
Method: Selected compounds were screened for kinase inhibition using the KINOMEscan™ assay (Eurofins) which is based on a competition binding assay that quantitatively measures the ability of a compound to compete with an immobilized, active-site directed ligand. The assay was performed by combining three components: DNA-tagged kinase; immobilized ligand; and the test compound. The ability of the test compound to compete with the immobilized ligand was measured via quantitative PCR of the DNA tag.
Kinase-tagged T7 phage strains were prepared in an E. coli host derived from the BL21 strain. E. coli were grown to log-phase and infected with T7 phage and incubated with shaking at 32° C. until lysis. The lysates were centrifuged and filtered to remove cell debris. The remaining kinases were produced in HEK-293 cells and subsequently tagged with DNA for qPCR detection. Streptavidin-coated magnetic beads were treated with biotinylated small molecule ligands for 30 minutes at room temperature to generate affinity resins for kinase assays. The liganded beads were blocked with excess biotin and washed with blocking buffer (SeaBlock (Pierce), 1% BSA, 0.05% Tween 20, 1 mM DTT) to remove unbound ligand and to reduce non-specific binding. Binding reactions were assembled by combining kinases, liganded affinity beads, and test compounds in 1× binding buffer (20% SeaBlock, 0.17×PBS, 0.05% Tween 20, 6 mM DTT). Test compounds were prepared as 111× stocks in 100% DMSO. Kds were determined using an 11-point 3-fold compound dilution series with three DMSO control points. All compounds for Kd measurements are distributed by acoustic transfer (non-contact dispensing) in 100% DMSO. The compounds were then diluted directly into the assays such that the final concentration of DMSO was 0.9%. All reactions performed in polypropylene 384-well plate. Each was a final volume of 0.02 ml. The assay plates were incubated at room temperature with shaking for 1 hour and the affinity beads were washed with wash buffer (1×PBS, 0.05% Tween 20). […] The kinase concentration in the eluates was measured by qPCR. […]

[2] = test system: KI-12-0062; test: PDX-derived cell culture cytotoxicity (CellTiter-Glo); format: cell-based; conditions: 120 h; kidney PDX KI-12-0062; absolute IC50; 5 days
Method: (§1) PDX-derived cell cultures were obtained from tumors explanted from mice and isolated by mechanical and enzymatic dissociation. […] Cells were harvested and seeded in 96-wells plates at a density of 1.25 to 5×10^3 cells/well for cytotoxicity assays. Cells were incubated 48 h at 37° C. prior to addition of test molecules and vehicle (DMSO, 0.1%) at desired final concentrations. Cell viability was assessed before drugs' addition (To) and 5 days after test molecules addition by measuring ATP cell content using CellTiter-Glo® Luminescent Cell Viability Assay (Promega) according to the manufacturer's instructions. Luciferase activity was measured on a luminometer (PerkinElmer® EnVision™). Each concentration of compounds was tested in triplicate.
(§2) Viability was calculated as a percentage of ATP value compared to vehicle treated controls.
(§3) For PDX primary cell cultures, the tumour tissue was washed with PBS containing antibiotic-antimycotic and non-tumour tissue and necrotic tumour tissues were separated. The tumour tissue was transferred to a new dish and cut into 1-2 mm^3 fragments, resuspended in RPMI-1640 medium and centrifuged at 1,200 rpm for 6 min at room temperature. The pelleted material was resuspended with 15 mL of Tumour Cell Digestion Solution and incubated at 37° C. for 1 hour with agitation. Following further addition of media, centrifugation and passage through a […] cell strainer, the homogenous cell mixture was layered onto 15 mL of Ficoll-Paque PLUS in a 50 mL conical tube and centrifuged for 15 min at 1,600 rpm. The interface cells were collected, washed with media, separated by centrifugation at 1,200 rpm. The cell pellet was resuspended in serum free media supplemented with growth factors. 10,000 cells/wells were plated in a 96 well plate and incubated at 37° C., 5% CO2, 95% air and 100% relative humidity overnight. The cytotoxicity assay was conducted as above. IC50 values represent absolute IC50.

[3] = test system: LY-24-0340; test: as above; format: cell-based; conditions: 120 h; lymphoma PDX LY-24-0340; absolute IC50; 5 days
Method: as §1, §2, §3

[4] = test system: HN-13-0020; test: as above; format: cell-based; conditions: 120 h; head and neck PDX HN-13-0020; absolute IC50; 5 days
Method: as §1, §2, §3

[5] = test system: ME-21-0028; test: as above; format: cell-based; conditions: 120 h; skin melanoma PDX ME-21-0028; absolute IC50; 5 days
Method: as §1, §2, §3

[6] = test system: ES-06-0002; test: as above; format: cell-based; conditions: 120 h; esophagus PDX ES-06-0002; absolute IC50; 5 days
Method: as §1, §2, §3

[7] = test system: EN-11-0101; test: as above; format: cell-based; conditions: 120 h; endometrial PDX EN-11-0101; absolute IC50; 5 days
Method: as §1, §2, §3

[8] = test system: ES-06-0122; test: as above; format: cell-based; conditions: 120 h; esophagus PDX ES-06-0122; absolute IC50; 5 days
Method: as §1, §2, §3

[9] = test system: BR-05-0014E; test: as above; format: cell-based; conditions: 120 h; breast PDX BR-05-0014E; absolute IC50; 5 days
Method: as §1, §2, §3

[10] = test system: LU-01-0025; test: as above; format: cell-based; conditions: 120 h; lung PDX LU-01-0025; absolute IC50; 5 days
Method: as §1, §2, §3

[11] = test system: skin melanoma PDX; test: Activity against skin melanoma PDX; format: cell-based; conditions: skin melanoma PDX growth; text summary of Table 22
Method: as §1, §2, §3

[12] = test system: head and neck PDX; test: Activity against head and neck PDX; format: cell-based; conditions: head and neck PDX growth; Table 11
Method: as §1, §2, §3

[13] = test system: esophagus PDX; test: Activity against esophagus PDX; format: cell-based; conditions: esophagus PDX growth; summary of Table 10
Method: as §1, §2, §3

[14] = test system: kidney PDX; test: Activity against kidney PDX; format: cell-based; conditions: kidney PDX growth; summary of Table 12
Method: as §1, §2, §3

[15] = test system: lung PDX; test: Activity against lung PDX; format: cell-based; conditions: lung PDX growth; Table 16
Method: as §1, §2, §3

[16] = test system: colon PDX; test: Activity against colon PDX; format: cell-based; conditions: for IC50: growth of colon PDX, Table 8; for selectivity among colon PDX: colon PDX CO-04-0722 and CO-04-0700 versus CO-04-0701
Method: as §1, §2, §3

How did the No. responsive kinases [1] turn out when `O=c1cc(-c2ccc(CCCC[P+](c3ccccc3)(c3ccccc3)c3ccccc3)cc2)oc2c(O)c(O)ccc12` [SND118, 4-[4-(7,8-dihydroxy-4-oxo-chromen-2-yl)phenyl]butyltriphenyl-phosphonium bromide] was run?
Its No. responsive kinases is 1.

For `O=c1cc(-c2ccc(CCCC[P+](c3ccccc3)(c3ccccc3)c3ccccc3)cc2)oc2c3c(ccc12)OCO3.[Br-]` [SND123, 4-[4-(6-oxo-[1,3]dioxolo[4,5-h]chromen-8-yl)phenyl]butyl-triphenylphosphonium bromide], which IC50 [2] is on record?
The IC50 was 3 µM.

What about the IC50 [3] of the same compound?
Its IC50 is 0.4 µM.

And the IC50 [4]?
The IC50 was 1.5 µM.

And the IC50 [5]?
Its IC50 is 0.8 µM.

And the IC50 [6]?
Its IC50 is 2.9 µM.

What about the IC50 [7] of the same compound?
Its IC50 is 1.8 µM.

And the IC50 [8]?
The IC50 was 4.5 µM.

What about the IC50 [9] of the same compound?
The IC50 was 0.98 µM.

And the IC50 [10]?
The IC50 was 2.4 µM.

What about the IC50 [11] of the same compound?
Its IC50 is under 10 µM.

And the IC50 [12]?
The IC50 was under 10 µM.

And the IC50 [13]?
The IC50 was under 20 µM.

And the IC50 [14]?
Its IC50 is under 20 µM.

What about the IC50 [15] of the same compound?
The IC50 was under 20 µM.

What about the IC50 [16] of the same compound?
Its IC50 is under 20 µM.

What about the No. responsive kinases [1] of the same compound?
The No. responsive kinases was 4.

Which IC50 [2] does the source give for `CCNC(=O)Oc1ccc2c(=O)cc(-c3ccc(CCCC[P+](c4ccccc4)(c4ccccc4)c4ccccc4)cc3)oc2c1OC(=O)NCC.[Br-]` [SND124, 4-[4-[7,8-Bis(ethylcarbamoyloxy)-4-oxo-chromen-2-yl]phenyl]-butyltriphenylphosphonium bromide] here?
The IC50 was 8.5 µM.

What about the IC50 [3] of the same compound?
Its IC50 is 3.7 µM.

What about the IC50 [4] of the same compound?
Its IC50 is 2 µM.

And the IC50 [5]?
Its IC50 is 7.7 µM.

And the IC50 [6]?
Its IC50 is 5.6 µM.

And the IC50 [7]?
Its IC50 is 9.6 µM.

And the IC50 [8]?
Its IC50 is 8.5 µM.

What about the IC50 [9] of the same compound?
The IC50 was 7.2 µM.

And the IC50 [10]?
The IC50 was 4.2 µM.

What about the IC50 [11] of the same compound?
Its IC50 is under 10 µM.

What about the IC50 [12] of the same compound?
The IC50 was under 10 µM.

What about the IC50 [13] of the same compound?
The IC50 was under 20 µM.

What about the IC50 [14] of the same compound?
Its IC50 is under 20 µM.

What about the IC50 [15] of the same compound?
The IC50 was under 20 µM.

And the “selectivity among colon PDX” value [16]?
The value was “marked selectivity toward CO-04-0722 and CO-04-0700”.

What about the IC50 [16] of the same compound?
The IC50 was under 20 µM.

With `CCNC(=O)Oc1ccc2c(=O)cc(-c3ccc(CCCC[P+](c4ccccc4)(c4ccccc4)c4ccccc4)cc3)oc2c1O.[Br-]` [SND126A, 4-[4-[7-(Ethylcarbamoyloxy)-8-hydroxy-4-oxo-chromen-2-yl]phenyl]butyltriphenylphosphonium bromide] as the compound, how does the IC50 [2] read?
The IC50 was 11 µM.

What about the IC50 [3] of the same compound?
Its IC50 is 4.1 µM.

What about the IC50 [4] of the same compound?
The IC50 was 2.7 µM.

And the IC50 [5]?
Its IC50 is 8 µM.

What about the IC50 [6] of the same compound?
Its IC50 is 9.3 µM.

And the IC50 [7]?
Its IC50 is 10.2 µM.

And the IC50 [8]?
Its IC50 is 8.3 µM.

What about the IC50 [9] of the same compound?
The IC50 was 7.7 µM.

What about the IC50 [10] of the same compound?
The IC50 was 5.3 µM.

And the IC50 [11]?
The IC50 was under 10 µM.

What about the IC50 [12] of the same compound?
Its IC50 is under 10 µM.

And the IC50 [13]?
The IC50 was under 20 µM.

And the IC50 [14]?
Its IC50 is under 20 µM.

And the IC50 [15]?
The IC50 was under 20 µM.

What about the “selectivity among colon PDX” value [16] of the same compound?
The value was “marked selectivity toward CO-04-0722 and CO-04-0700”.

And the IC50 [16]?
Its IC50 is under 20 µM.

Which results are given for `COc1c(O)ccc2c(=O)cc(-c3ccc(CCCC[P+](c4ccccc4)(c4ccccc4)c4ccccc4)cc3)oc12.[Br-]` [SND140, (4-(4-(7-hydroxy-8-methoxy-4-oxo-4H-chromen-2-yl)phenyl)butyl)triphenylphosphonium bromide]?
IC50 [2]: 16.8 µM; IC50 [3]: 4.1 µM; IC50 [4]: 9.1 µM; IC50 [5]: 1.1 µM; IC50 [6]: 9.66 µM; IC50 [7]: 6.2 µM; IC50 [8]: 13.5 µM; IC50 [9]: 10.4 µM; IC50 [10]: 10.5 µM; IC50 [11]: < 10 µM; IC50 [12]: < 10 µM; IC50 [13]: < 20 µM; IC50 [14]: < 20 µM; IC50 [15]: < 20 µM; IC50 [16]: < 20 µM; No. responsive kinases [1]: 4
